Assay [1] has as its target Platelet-derived growth factor receptor alpha (Homo sapiens, UniProt P16234). As to the kind of experiment: Inhibition of PDGFRalpha.
Assay [2] concerns the target Ribosomal protein S6 kinase beta-1 (Homo sapiens) (UniProt P23443). As to the kind of experiment: Inhibition of S6K1 at 10 uM.
The target in a further assay is T1, Ephrin type-A receptor 3 (Homo sapiens, UniProt P29320).
T1 sequence (P29320 whole entry): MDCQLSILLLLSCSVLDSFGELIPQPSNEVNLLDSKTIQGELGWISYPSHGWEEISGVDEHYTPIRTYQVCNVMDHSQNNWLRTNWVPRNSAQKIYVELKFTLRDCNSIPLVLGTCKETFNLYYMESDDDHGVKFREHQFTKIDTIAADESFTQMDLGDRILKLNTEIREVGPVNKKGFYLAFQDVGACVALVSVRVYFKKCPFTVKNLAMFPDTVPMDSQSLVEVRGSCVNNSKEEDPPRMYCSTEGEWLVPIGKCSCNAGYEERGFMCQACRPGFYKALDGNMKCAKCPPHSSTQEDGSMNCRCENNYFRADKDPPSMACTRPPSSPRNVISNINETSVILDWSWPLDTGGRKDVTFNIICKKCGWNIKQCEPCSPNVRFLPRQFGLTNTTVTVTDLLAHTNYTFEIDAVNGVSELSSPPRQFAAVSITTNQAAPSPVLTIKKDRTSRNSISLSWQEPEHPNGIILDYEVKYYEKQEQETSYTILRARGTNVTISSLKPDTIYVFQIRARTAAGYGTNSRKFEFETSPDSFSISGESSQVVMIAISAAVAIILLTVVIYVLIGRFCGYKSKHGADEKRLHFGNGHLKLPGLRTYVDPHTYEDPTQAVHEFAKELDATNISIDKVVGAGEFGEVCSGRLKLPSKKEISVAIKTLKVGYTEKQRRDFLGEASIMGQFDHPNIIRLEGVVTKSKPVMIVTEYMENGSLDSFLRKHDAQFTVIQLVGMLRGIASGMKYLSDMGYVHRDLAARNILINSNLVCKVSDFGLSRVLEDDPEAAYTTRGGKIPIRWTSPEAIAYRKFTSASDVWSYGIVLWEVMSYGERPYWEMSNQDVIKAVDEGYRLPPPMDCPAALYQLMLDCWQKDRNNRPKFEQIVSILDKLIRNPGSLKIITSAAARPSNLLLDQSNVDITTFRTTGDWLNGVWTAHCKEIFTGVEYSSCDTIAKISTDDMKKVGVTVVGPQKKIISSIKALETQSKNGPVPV
Briefly: Inhibition of Hek.

Assay [3] concerns the target T2, Inhibitor of nuclear factor kappa-B kinase subunit beta (Homo sapiens, UniProt O14920).
T2 sequence (O14920 whole entry): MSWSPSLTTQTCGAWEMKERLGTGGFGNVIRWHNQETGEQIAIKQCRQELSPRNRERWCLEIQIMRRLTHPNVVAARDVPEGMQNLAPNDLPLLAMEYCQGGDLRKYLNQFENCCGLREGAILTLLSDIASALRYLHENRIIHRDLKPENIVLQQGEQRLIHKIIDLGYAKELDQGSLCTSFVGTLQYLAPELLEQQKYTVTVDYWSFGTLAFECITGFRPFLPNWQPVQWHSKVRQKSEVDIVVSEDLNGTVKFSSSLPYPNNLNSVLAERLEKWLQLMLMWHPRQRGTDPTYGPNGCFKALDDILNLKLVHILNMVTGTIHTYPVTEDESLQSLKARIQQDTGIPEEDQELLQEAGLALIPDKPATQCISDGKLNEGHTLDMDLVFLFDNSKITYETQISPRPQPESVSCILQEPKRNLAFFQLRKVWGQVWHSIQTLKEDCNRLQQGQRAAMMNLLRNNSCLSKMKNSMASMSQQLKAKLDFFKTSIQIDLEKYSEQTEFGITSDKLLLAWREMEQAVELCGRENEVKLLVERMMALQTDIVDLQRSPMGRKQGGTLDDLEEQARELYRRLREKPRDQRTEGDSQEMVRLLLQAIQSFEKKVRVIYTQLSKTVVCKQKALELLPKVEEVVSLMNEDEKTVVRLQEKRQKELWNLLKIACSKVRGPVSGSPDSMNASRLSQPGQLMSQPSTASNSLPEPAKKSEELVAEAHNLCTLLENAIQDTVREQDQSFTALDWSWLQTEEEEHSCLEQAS
As to the kind of experiment: Inhibition of Flag epitope-tagged IKK-beta preincubated for 5 mins by scintillation proximity assay. On the technique in general: SPA uses beads or plates that emit light when radiolabelled molecules are held near them.

The test system of a further assay is Mus musculus. As to the kind of experiment: Inhibition of LPS-induced TNFalpha production in mouse at 30 mg/kg, po administered 60 mins before LPS challenge. In kind it is functional.
Assay [4] has as its target Epidermal growth factor receptor (Homo sapiens, UniProt P00533).
The target in assay [5] is Insulin-like growth factor 1 receptor (Homo sapiens, UniProt P08069). Briefly: Inhibition of IGF1R.
In assay [6] the target is T3, Serine/threonine-protein kinase Chk1 (Homo sapiens) (UniProt O14757).
T3 sequence (whole entry): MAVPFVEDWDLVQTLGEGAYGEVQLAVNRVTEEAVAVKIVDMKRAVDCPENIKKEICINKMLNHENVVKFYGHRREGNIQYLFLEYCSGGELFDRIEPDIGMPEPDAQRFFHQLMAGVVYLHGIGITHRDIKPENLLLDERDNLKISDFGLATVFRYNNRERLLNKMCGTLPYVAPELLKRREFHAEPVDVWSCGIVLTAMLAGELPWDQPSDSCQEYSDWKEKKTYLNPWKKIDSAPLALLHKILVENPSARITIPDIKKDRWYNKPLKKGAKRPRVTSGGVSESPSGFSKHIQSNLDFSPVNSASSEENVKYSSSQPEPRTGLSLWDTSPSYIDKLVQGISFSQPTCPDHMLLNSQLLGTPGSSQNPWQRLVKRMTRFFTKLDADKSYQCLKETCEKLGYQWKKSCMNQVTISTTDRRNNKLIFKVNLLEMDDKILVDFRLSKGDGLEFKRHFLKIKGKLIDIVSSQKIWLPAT
Briefly: Inhibition of CHK1 at 10 uM.

Each structure is given as a SMILES string. Activity calls are given as the source filed them. The calls are words filed in the database; no cut-off is given here.

Chain of Ribosomal protein S6 kinase beta-1 (Homo sapiens) (P23443 whole entry, looked up): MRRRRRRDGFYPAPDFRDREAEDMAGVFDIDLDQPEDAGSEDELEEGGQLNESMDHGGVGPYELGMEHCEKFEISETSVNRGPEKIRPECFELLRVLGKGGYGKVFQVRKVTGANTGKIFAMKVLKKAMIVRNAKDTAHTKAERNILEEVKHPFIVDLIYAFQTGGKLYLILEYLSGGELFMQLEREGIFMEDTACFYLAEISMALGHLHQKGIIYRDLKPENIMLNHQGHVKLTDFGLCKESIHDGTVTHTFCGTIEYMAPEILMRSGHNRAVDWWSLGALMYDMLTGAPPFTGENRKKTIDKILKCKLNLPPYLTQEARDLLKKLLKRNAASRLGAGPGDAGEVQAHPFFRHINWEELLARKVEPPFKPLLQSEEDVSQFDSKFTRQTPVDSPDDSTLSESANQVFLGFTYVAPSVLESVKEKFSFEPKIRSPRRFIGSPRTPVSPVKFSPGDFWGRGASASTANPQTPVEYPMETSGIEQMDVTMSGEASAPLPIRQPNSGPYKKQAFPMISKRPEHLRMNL
Chain of Platelet-derived growth factor receptor alpha (P16234 whole entry): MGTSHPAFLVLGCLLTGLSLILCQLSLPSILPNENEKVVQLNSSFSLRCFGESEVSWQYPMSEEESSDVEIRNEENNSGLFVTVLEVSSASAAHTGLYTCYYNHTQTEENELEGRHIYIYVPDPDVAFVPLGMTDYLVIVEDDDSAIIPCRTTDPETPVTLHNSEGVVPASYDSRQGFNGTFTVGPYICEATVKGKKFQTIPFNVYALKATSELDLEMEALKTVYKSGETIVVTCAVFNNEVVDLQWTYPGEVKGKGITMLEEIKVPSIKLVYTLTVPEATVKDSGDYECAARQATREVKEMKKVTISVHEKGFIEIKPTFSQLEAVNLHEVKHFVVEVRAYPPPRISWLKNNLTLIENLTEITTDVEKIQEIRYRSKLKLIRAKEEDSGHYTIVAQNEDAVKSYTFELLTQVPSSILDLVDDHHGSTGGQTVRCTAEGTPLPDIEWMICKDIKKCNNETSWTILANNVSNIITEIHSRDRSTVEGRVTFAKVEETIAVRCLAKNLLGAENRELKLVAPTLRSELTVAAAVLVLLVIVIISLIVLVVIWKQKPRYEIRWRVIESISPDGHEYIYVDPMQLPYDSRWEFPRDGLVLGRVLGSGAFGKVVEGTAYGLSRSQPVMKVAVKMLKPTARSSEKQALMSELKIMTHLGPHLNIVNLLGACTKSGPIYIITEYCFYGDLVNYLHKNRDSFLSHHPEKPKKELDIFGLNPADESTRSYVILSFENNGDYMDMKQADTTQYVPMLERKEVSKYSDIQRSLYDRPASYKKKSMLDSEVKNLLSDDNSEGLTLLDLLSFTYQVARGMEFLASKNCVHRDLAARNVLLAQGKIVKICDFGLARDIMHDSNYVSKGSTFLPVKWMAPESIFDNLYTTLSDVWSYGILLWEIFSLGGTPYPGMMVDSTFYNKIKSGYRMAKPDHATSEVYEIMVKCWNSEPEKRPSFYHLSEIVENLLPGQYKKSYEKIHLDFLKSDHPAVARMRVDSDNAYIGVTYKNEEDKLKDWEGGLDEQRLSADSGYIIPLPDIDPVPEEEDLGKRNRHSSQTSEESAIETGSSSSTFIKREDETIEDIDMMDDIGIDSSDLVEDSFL
Chain of Insulin-like growth factor 1 receptor (P08069 31-736 limits assumed): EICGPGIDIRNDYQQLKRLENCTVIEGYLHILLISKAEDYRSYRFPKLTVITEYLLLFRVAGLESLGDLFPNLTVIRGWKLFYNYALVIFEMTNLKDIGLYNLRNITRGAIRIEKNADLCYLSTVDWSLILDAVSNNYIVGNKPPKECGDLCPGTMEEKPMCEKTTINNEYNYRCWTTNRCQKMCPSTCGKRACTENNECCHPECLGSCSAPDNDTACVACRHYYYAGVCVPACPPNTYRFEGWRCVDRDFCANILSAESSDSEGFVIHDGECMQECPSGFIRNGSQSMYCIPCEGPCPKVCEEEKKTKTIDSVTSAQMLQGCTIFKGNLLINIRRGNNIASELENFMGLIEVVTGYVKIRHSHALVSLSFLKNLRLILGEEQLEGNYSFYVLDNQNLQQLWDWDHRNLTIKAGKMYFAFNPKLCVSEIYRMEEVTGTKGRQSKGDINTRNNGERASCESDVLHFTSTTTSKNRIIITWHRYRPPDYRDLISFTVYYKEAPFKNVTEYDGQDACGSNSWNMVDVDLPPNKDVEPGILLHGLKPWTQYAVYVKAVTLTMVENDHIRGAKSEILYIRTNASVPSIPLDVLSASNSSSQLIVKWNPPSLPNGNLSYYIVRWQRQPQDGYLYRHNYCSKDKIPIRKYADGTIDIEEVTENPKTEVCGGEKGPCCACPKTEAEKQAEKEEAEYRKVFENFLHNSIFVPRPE
Chain of Insulin-like growth factor 1 receptor (P08069 741-1367 limits assumed): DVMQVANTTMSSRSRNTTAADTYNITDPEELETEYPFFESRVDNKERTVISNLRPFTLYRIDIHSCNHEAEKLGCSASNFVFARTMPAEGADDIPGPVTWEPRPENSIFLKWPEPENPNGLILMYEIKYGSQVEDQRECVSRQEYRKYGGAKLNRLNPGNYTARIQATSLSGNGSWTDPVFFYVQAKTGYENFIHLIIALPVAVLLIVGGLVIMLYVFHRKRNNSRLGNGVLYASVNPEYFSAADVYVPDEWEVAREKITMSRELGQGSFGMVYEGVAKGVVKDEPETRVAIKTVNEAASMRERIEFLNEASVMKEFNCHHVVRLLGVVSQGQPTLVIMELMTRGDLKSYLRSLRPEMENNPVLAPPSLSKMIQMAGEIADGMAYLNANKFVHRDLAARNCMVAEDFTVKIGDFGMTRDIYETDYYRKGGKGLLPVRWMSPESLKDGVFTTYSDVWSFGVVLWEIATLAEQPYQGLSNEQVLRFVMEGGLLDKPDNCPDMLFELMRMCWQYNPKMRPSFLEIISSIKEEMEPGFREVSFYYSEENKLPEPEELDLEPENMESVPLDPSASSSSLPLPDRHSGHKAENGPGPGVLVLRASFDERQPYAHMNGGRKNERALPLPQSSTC
Chain of Epidermal growth factor receptor (P00533 whole entry): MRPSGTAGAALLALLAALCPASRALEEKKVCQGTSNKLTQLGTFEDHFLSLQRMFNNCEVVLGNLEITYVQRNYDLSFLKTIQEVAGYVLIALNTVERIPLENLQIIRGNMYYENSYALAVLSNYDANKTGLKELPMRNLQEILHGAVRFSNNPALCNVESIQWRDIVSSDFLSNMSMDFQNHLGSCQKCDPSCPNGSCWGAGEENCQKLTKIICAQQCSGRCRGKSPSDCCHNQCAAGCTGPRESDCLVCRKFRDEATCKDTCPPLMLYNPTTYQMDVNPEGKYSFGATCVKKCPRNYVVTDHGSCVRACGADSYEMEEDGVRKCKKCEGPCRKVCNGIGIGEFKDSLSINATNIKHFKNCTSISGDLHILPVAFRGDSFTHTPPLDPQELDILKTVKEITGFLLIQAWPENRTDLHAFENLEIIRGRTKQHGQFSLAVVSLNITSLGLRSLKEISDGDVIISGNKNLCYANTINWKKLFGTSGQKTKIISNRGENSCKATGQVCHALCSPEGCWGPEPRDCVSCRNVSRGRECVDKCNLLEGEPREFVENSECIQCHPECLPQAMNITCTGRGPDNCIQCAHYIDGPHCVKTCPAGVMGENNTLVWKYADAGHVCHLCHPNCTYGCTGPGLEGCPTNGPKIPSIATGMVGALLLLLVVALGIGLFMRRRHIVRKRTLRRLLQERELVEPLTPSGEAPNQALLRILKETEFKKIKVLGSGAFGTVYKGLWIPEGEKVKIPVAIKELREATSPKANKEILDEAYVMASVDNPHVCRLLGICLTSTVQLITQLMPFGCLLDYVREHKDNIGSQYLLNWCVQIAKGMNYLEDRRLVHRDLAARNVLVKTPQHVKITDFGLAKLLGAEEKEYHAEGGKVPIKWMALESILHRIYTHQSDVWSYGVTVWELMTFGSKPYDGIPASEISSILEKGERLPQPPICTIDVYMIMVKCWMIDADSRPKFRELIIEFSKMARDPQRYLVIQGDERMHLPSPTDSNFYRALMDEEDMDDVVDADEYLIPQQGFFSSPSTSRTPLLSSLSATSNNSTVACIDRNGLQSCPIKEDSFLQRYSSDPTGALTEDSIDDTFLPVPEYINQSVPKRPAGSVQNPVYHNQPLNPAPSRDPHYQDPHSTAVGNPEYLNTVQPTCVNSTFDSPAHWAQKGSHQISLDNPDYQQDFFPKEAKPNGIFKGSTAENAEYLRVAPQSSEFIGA

`CCCc1cc(N2CCCC(O)C2)nc2sc(C(N)=O)c(N)c12` (centres undefined): the IC50 (as a rule, the concentration that gives 50% inhibition) in assay [1] was > 7 µM; at Ephrin type-A receptor 3, > 7 µM; in assay [3] it was 0.57 µM; in assay [4] it was > 7 µM; in assay [5], > 7 µM. Also, the result in assay [2] and in assay [6] was inactive. Besides, the inhibition in vivo (usually the change of the read-out against control, counted positive when it falls) at 30 mg/kg in the assay with Mus musculus is 67%.
As for `CCCc1cc(N2CCC(N)CC2)nc2sc(C(N)=O)c(N)c12`, the IC50 is > 7 µM in assay [1], 7 µM on Ephrin type-A receptor 3, 0.041 µM in assay [3] and > 7 µM in assay [5]. Moreover, the outcome in assay [2] and in assay [6] was inactive. For the same molecule, testing at 30 mg/kg in the assay on Mus musculus gave an inhibition in vivo of 14%.
On to `CCCc1cc(N2CCC(O)CC2)nc2sc(C(N)=O)c(N)c12`, for which the IC50 in assay [1] was > 7 µM; on Ephrin type-A receptor 3 it was 9 µM; in assay [3], 0.28 µM; in assay [5] it was > 7 µM. Also, the result in assay [2] and in assay [6] was inactive. The same molecule returned an inhibition in vivo at 30 mg/kg in the assay on Mus musculus of 94%.
Take `CCCc1cc(N2CCNCC2)nc2sc(C(N)=O)c(N)c12`: the IC50 in assay [1] is 0.3 µM; at Ephrin type-A receptor 3, 8 µM; in assay [3], 0.12 µM; in assay [5], > 7 µM. Further, the outcome in assay [2] and in assay [6] was inactive. The molecule further returned an inhibition in vivo at 30 mg/kg in the assay with Mus musculus of 35%.

The record behind these values is ChEMBL document CHEMBL1156029, “The discovery of thienopyridine analogues as potent IkappaB kinase beta inhibitors. Part II” (Bioorg Med Chem Lett, 2009).
